Results reported in ChEMBL document CHEMBL2074577, “Resistance to mitoxantrone in multidrug-resistant MCF7 breast cancer cells: evaluation of mitoxantrone transport and the role of multidrug resistance protein family proteins” (Cancer Res, 2001).

Biological target: Multidrug resistance-associated protein 1 (Homo sapiens, UniProt P33527)
Assay: TP_TRANSPORTER: efflux in MCF7/VP and MCF cells
Format: functional, cell-based

Chain of Multidrug resistance-associated protein 1 (P33527 whole entry): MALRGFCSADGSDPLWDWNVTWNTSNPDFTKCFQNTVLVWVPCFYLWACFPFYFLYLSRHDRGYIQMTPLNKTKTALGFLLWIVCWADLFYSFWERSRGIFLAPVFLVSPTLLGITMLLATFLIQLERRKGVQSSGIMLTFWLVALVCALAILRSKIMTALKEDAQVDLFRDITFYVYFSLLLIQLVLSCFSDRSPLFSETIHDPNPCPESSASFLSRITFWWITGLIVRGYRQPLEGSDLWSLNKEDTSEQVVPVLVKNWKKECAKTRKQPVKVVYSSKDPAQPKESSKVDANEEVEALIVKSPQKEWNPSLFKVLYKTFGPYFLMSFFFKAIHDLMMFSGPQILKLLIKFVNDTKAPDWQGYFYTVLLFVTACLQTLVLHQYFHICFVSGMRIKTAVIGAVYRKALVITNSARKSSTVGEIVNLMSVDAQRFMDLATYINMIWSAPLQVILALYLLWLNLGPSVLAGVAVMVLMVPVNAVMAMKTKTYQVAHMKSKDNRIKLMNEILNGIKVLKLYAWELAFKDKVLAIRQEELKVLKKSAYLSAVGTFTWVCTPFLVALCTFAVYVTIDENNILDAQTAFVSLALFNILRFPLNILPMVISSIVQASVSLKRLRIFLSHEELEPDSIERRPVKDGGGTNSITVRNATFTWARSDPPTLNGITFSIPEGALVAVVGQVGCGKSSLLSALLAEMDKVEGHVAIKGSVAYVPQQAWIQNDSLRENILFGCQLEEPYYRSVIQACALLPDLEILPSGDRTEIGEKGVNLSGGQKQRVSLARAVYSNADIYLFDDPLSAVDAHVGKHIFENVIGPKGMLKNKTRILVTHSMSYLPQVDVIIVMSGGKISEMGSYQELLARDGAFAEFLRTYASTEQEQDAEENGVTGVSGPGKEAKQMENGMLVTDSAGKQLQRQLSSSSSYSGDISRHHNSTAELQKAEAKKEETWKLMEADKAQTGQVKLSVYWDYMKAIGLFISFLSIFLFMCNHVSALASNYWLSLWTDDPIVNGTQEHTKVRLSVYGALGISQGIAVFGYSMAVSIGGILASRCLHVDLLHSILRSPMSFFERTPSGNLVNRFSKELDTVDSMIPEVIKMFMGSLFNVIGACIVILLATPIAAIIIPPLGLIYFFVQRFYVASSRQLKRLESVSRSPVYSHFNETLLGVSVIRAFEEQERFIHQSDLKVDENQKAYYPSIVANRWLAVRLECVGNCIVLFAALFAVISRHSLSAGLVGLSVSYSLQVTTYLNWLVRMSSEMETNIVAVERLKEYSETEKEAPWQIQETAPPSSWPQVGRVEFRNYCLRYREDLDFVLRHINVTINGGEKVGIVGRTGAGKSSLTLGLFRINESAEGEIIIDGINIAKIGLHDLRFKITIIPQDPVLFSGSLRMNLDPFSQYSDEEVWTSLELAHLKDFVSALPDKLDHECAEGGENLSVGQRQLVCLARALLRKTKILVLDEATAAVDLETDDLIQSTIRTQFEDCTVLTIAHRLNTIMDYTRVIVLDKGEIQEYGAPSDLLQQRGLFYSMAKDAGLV

**Q.** For O=C1c2c(O)ccc(O)c2C(=O)c2c(NCCNCCO)ccc(NCCNCCO)c21 [MITOXANTRONE], which Activity is on record?
**A.** Its Activity is “substrate [+]”.
